Reference: ChEMBL document CHEMBL1124317, “Rationale for the synthesis and preliminary biological evaluation of highly active new antitumor nitrosoureido sugars” (J Med Chem, 1989)

Key:
Mus musculus [1] = experiment: The number of L1210 leukemia mice survived after 30 days with compound in aqueous solution injected by a dose of 5 mg/kg intraperitoneally; 6/10; type: functional; conditions: route intraperitoneal
Mus musculus [2] = experiment: The number of L1210 leukemia mice survived after 60 days with compound in aqueous solution injected by a dose of 5 mg/kg intraperitoneally; 6/10; type: functional; conditions: route intraperitoneal
Mus musculus [3] = species on record: Mus musculus; experiment: Median survival time of the non surviving mice; there are single deaths on day 20, day 21, day 22, and day 25; four deaths occurred; type: functional, organism-based
[4] = Number of mice died/no of mice treated with 5 mg/kg of compound in aqueous solution intraperitoneally with L1210 leukemia; 0/10; type: functional; conditions: route intraperitoneal
Mus musculus [5] = experiment: Anti tumor activity l when treated to mice with L1210 leukemia with 1.25 mg/kg dose of compound intraperitoneally was expressed as percent of treated to control (T/C %); type: functional; conditions: route intraperitoneal
Mus musculus [6] = experiment: Anti tumor activity l when treated to mice with L1210 leukemia with 2.5 mg/kg dose of compound intraperitoneally was expressed as percent of treated to control (T/C %); type: functional; conditions: route intraperitoneal
Mus musculus [7] = experiment: Anti tumor activity l when treated to mice with L1210 leukemia with 5 mg/kg dose of compound intraperitoneally was expressed as percent of treated to control (T/C %); type: functional; conditions: route intraperitoneal
Mus musculus [8] = experiment: The number of L1210 leukemia mice survived after 30 days with compound in aqueous solution injected by a dose of 5 mg/kg intraperitoneally; 0/10; type: functional; conditions: route intraperitoneal
Mus musculus [9] = experiment: The number of L1210 leukemia mice survived after 30 days with compound injected by a dose of 1.25 mg/kg intraperitoneally; 0/8; type: functional; conditions: route intraperitoneal
Mus musculus [10] = experiment: The number of L1210 leukemia mice survived after 30 days with compound injected by a dose of 10 mg/kg intraperitoneally; 8/8; type: functional; conditions: route intraperitoneal
Mus musculus [11] = experiment: The number of L1210 leukemia mice survived after 30 days with compound injected by a dose of 2.5 mg/kg intraperitoneally; 0/8; type: functional; conditions: route intraperitoneal
Mus musculus [12] = experiment: The number of L1210 leukemia mice survived after 30 days with compound injected by a dose of 5 mg/kg intraperitoneally; 0/8; type: functional; conditions: route intraperitoneal
Mus musculus [13] = experiment: Anti tumor activity in olive oil when treated to mice with L1210 leukemia with 5 mg/kg dose of compound intraperitoneally was expressed as percent of treated to control (T/C %); type: functional; conditions: route intraperitoneal
Mus musculus [14] = experiment: Median survival time of the non surviving mice; treated with 5 mg/kg of compound in olive oil to mice with L1210 leukemia; 16-19; type: functional
Mus musculus [15] = experiment: The number of L1210 leukemia mice survived after 60 days with compound in aqueous solution injected by a dose of 5 mg/kg intraperitoneally; 0/10; type: functional; conditions: route intraperitoneal
Mus musculus [16] = experiment: The number of L1210 leukemia mice survived after 30 days with compound injected by a dose of 0.625 mg/kg intraperitoneally; 0/8; type: functional; conditions: route intraperitoneal
Mus musculus [17] = experiment: Anti tumor activity l when treated to mice with L1210 leukemia with 0.625 mg/kg dose of compound intraperitoneally was expressed as percent of treated to control (T/C %); type: functional; conditions: route intraperitoneal
Mus musculus [18] = experiment: Median survival time of the non surviving mice; treated with 5 mg/kg of compound to mice with L1210 leukemia; 18-24; type: functional
Mus musculus [19] = experiment: Median survival time of the non surviving mice; treated with 0.625 mg/kg of compound to mice with L1210 leukemia; 9-10; type: functional
Mus musculus [20] = experiment: Median survival time of the non surviving mice; treated with 1.25 mg/kg of compound to mice with L1210 leukemia; 9-11; type: functional
Mus musculus [21] = experiment: Median survival time of the non surviving mice; treated with 2.5 mg/kg of compound to mice with L1210 leukemia; 11-12; type: functional
[22] = Mortality range of the mice with L1210 leukemia treated with 5 mg/kg of dose intraperitoneally with no of mice survived/no of mice treated; 0/8; type: functional; conditions: route intraperitoneal
[23] = Mortality range of the mice with L1210 leukemia treated with 1.25 mg/kg of dose intraperitoneally with no of mice survived/no of mice treated; 0/8; type: functional; conditions: route intraperitoneal
[24] = Mortality range of the mice with L1210 leukemia treated with 2.5 mg/kg of dose intraperitoneally with no of mice survived/no of mice treated; 0/8; type: functional; conditions: route intraperitoneal
[25] = Mortality range of the mice with L1210 leukemia treated with 0.625 mg/kg of dose intraperitoneally with no of mice survived/no of mice treated; 0/8; type: functional; conditions: route intraperitoneal
[26] = Mortality range of the mice with L1210 leukemia treated with 10 mg/kg of dose intra peritoneally with no of mice survived/no of mice treated; 0/8; type: functional
Mus musculus [27] = experiment: The number of L1210 Leukemia mice survived after 30 days with compound in olive oil injected by a dose of 20 mg/kg intraperitoneally; 15/15; type: functional; conditions: route intraperitoneal
Mus musculus [28] = experiment: The number of B16 melanocarcinoma mice survived after 30 days with compound in olive oil injected by a dose of 20 mg/kg intraperitoneally; 14/20; type: functional; conditions: route intraperitoneal
Mus musculus [29] = experiment: The number of B16 melanocarcinoma mice survived after 60 days with compound in olive oil injected by a dose of 20 mg/kg intraperitoneally; 1/20; type: functional; conditions: route intraperitoneal
Mus musculus [30] = experiment: The number of L1210 leukemia mice survived after 60 days with compound in aqueous solution injected by a dose of 20 mg/kg intraperitoneally; 0/10; type: functional; conditions: route intraperitoneal
Mus musculus [31] = experiment: Anti tumor activity in olive oil when treated to mice with B16 melanocarcinoma with 5 mg/kg dose of compound intraperitoneally was expressed as percent of treated to control (T/C %); type: functional; conditions: route intraperitoneal
Mus musculus [32] = experiment: Anti tumor activity in olive oil when treated to mice with L1210 leukemia with 5 mg/kg dose of compound intraperitoneally was expressed as percent of treated to control; type: functional; conditions: route intraperitoneal
Mus musculus [33] = experiment: Median survival time of the non surviving mice; treated with 5 mg/kg of compound in olive oil to mice with B16 Melanocarcinoma; 13-51; type: functional
Mus musculus [34] = experiment: Median survival time of the non surviving mice; treated with 5 mg/kg of compound in olive oil to mice with L1210 leukemia and the value is mentioned in braces is range; type: functional
Mus musculus [35] = experiment: The number of Lewis lung mice survived after 30 days with compound in olive oil injected by a dose of 20 mg/kg intraperitoneally; 20/20; type: functional; conditions: route intraperitoneal
Mus musculus [36] = experiment: The number of Lewis lung mice survived after 60 days with compound in olive oil injected by a dose of 20 mg/kg intraperitoneally; 15/20; type: functional; conditions: route intraperitoneal
Mus musculus [37] = experiment: The number of L1210 Leukemia mice survived after 60 days with compound in olive oil injected by a dose of 20 mg/kg intraperitoneally; 15/15; type: functional; conditions: route intraperitoneal
Mus musculus [38] = experiment: The number of L1210 leukemia mice survived after 30 days with compound in aqueous solution injected by a dose of 20 mg/kg intraperitoneally; 0/10; type: functional; conditions: route intraperitoneal
[39] = Ratio of mice died to that of mice treated with 20 mg/kg of compound in aqueous solution intraperitoneally with L1210 leukemia; 0/10; type: functional; conditions: route intraperitoneal
[40] = Ratio of mice died to that of mice treated with 20 mg/kg of compound in olive oil intraperitoneally with B16 Melanocarcinoma; 0/20; type: functional; conditions: route intraperitoneal
[41] = Ratio of mice died to that of mice treated with 20 mg/kg of compound in olive oil intraperitoneally with L1210 leukemia tumor; 0/15; type: functional; conditions: route intraperitoneal
[42] = Ratio of mice died to that of mice treated with 20 mg/kg of compound in olive oil intraperitoneally with Lewis lung; 0/20; type: functional; conditions: route intraperitoneal

Molecule CO[C@H]1C[C@@H](NC(=O)N(CCCl)N=O)[C@H](O)[C@@H](CO)O1 has a Survivals (Mus musculus [1]) of 6, a Survivals (Mus musculus [2]) of 6 and a Number of deaths (Mus musculus [3]) of 4. It also gave a Ratio [4] of 0.

For O=NN(CCCl)C(=O)NCCCl [CARMUSTINE], the T/C (Mus musculus [5]) was 110%, the T/C (Mus musculus [6]) was 128% and the T/C (Mus musculus [7]) was 220%. For the same molecule, the Survivals (Mus musculus [8]) was 0, the Survivals (Mus musculus [9]) was 0 and the Survivals (Mus musculus [10]) was 8. It also gave a Survivals (Mus musculus [11]) of 0, a Survivals (Mus musculus [12]) of 0 and a T/C (Mus musculus [13]) of 177%. It also gave a Median survival time (Mus musculus [14]) of 16.75, a Survivals (Mus musculus [15]) of 0 and a Survivals (Mus musculus [16]) of 0. For the same molecule, the T/C (Mus musculus [17]) was 104%, the Median survival time (Mus musculus [18]) was 19.8 and the Median survival time (Mus musculus [19]) was 9.4. For the same molecule, the Median survival time (Mus musculus [20]) was 9.9, the Median survival time (Mus musculus [21]) was 11.5 and the Ratio [22] was 0. The Ratio [23] was 0, the Ratio [24] was 0 and the Ratio [25] was 0. For the same molecule, the Ratio [26] was 0 and the Ratio [4] was 0.

CO[C@@H]1C[C@@H](NC(=O)N(CCCl)N=O)[C@H](O)[C@@H](C)O1 showed a Survivals (Mus musculus [27]) of 15, a Survivals (Mus musculus [28]) of 14 and a Survivals (Mus musculus [29]) of 1. It also gave a Survivals (Mus musculus [30]) of 0, a T/C (Mus musculus [31]) of 260% and a T/C (Mus musculus [32]) of 150%. For the same molecule, the Median survival time (Mus musculus [33]) was 36.25, the Median survival time (Mus musculus [34]) was 14.2 and the Survivals (Mus musculus [35]) was 20. The Survivals (Mus musculus [36]) was 15, the Survivals (Mus musculus [37]) was 15 and the Survivals (Mus musculus [38]) was 0. It also gave a Ratio [39] of 0, a Ratio [40] of 0 and a Ratio [41] of 0. The Ratio [42] was 0.
